# Where “and” joins values, the source holds several entries; their conditions need not be identical. Equal entries are not always repeated.
# How the values were obtained:
# CD16 = experiment: Binding to soluble FcγR-MIg fusion on WIL2-S cells, flow cytometry (allele not stated)
# Experimental: The immunoglycoproteins produced according to Example 2 were assayed in vitro for binding to soluble Ig-fusion versions of Fcγ receptors, in which the extracellular domain of a receptor is fused to murine IgG2a Fc.
# The soluble Fey receptor materials were generated by fusing the extracellular domain of Fcγ Receptors I (Genbank Acc. No. BC032634), IIa (Genbank Acc. No. NM_021642), IIb (Genbank Acc. No. BC031992), and III-V158 (high affinity allele) (Genbank Acc. No. X07934) and III-F158 (low affinity allele), respectively, to a murine IgG2a Fc with a Pro to Ser mutation at residue 238 (MIgG2aP238S). For both forms of Fcγ RIII (CD16), an HE4 leader was cloned onto CD16 amino acids 1-178 and then fused to MIgG2aP238S.
# The assays were carried out as follows. […] The cells were then incubated with the desired FcγR-MIg fusion in the same diluent at a concentration of 1 μg/ml on ice for 45 minutes.
# The complexes (WIL2-S cells/SMIP/FcγR-MIg) were then incubated with PE conjugated AffiniPure F(Ab')2 Goat Anti-Mouse IgG [Jackson Immunoresearch] (a mouse Fc-specific antibody with minimal cross reactivity with human Fc) at a 1:100 dilution. The cells were analyzed by one-color flow cytometry on a FACsCalibur using CellQuest software (Becton Dickinson).
# If TRU-016 supernatants from Example 2 were used in this assay instead of purified TRU-016 protein, the SMIP concentration in the supernatant was quantified by direct staining of WIL2-S cells with diluted supernatant along with a TRU-016 standard. TRU-016 was detected by staining with FITC conjugated F(Ab')2 Goat Anti-Human (gamma) [Caltag H10101] at a 1:50 dilution.
# [1] = tested on: CHO cells transfected with TRU-016; experiment: Effect of castanospermine concentration on cell viability, density and specific protein production of TRU-016; type: cell-based, Chinese hamster; details: for Viability at Harvest (%): harvest day 8, duplicate flasks, listed as CS
# Experimental: Prior to initiation of the experiments, CHO cells transfected with TRU-016 were grown in shake flasks in Ex-Cell™ 302 CHO serum-free media (SAFC Biosciences) supplemented with 1× non-essential amino acids (MediaTech), 1× sodium pyruvate (MediaTech), 4 mM L-glutamine (MediaTech), 500 nM methotrexate (MP Biomedicals) and 1 mg/L recombinant insulin (Recombulin—GIBCO/Invitrogen Corp.) at 37° C. and 5% carbon dioxide in a humidified incubator. A 200 mM stock concentration of castanospermine (Alexis Biochemicals) was prepared by dilution of the castanospermine in sterile, distilled/deionized water (MediaTech) and filtration through a 13 mm Acrodisc® with a 0.2 μm HT Tuffryn membrane (Pall Corporation). Stock solution was aliquoted into sterile, O-ringed, 0.5 mL microcentrifuge tubes (Fisherbrand, Fisher Scientific) and frozen at −20° C. Approximately 1 hour prior to initiation of experiments, needed aliquots were thawed at room temperature and the contents of each vial mixed well by vortexing.
# For each experiment, cells in log phase growth were seeded in the above medium into a total volume of 60 mL in 250 mL shaker flasks at a density of 200,000 cells/mL and CS added at the concentration to be tested. Final CS concentrations of 800 μM, 400 μM, 200 μM, 100 μM, 50 μM, 25 μM and 0 μM were each tested in duplicate flasks. All cultures were incubated at 37° C. and 5% carbon dioxide in a humidified incubator and monitored at least every other day for viable cell density and overall cell viability.
# Cultures were harvested on day 8 when overall cell viability was 50-70% (Expt. 1) and 30-50% (Expt. 2). Cells and cellular debris were removed by centrifugation in a Sorvall Super T21 at 3000 rpm for 20 minutes after which the supernatant was sterile filtered through a Millipore Steriflip unit with a 0.22 μm Millipore Express Plus membrane and stored at 2-8° C. until purification.
# CD37 = experiment: Binding of TRU-016 to CD37 expressing Daudi cells; design: species or system human; details: CS 25-800 μM in culture
# Experimental: The cells are then incubated with a FITC-conjugated goat anti-human IgG Fc specific antibody (Caltag H 10501). This antibody will bind to the Fc region of the human IgG chain of TRU-016 bound to the cells. The antibody is diluted 1:50 in FACS buffer and 100 μL is added to each well. The plate is incubated at 4° C. in the dark for 45 minutes. Any unbound FITC-labeled antibody is removed by adding 100 μL of FACS buffer to each well, centrifuging at 250×g for 3 minutes at 15° C. followed by removal of supernatant. This is followed by a second wash with 200 μL/well FACS buffer. The cells are resuspended with 200 μL/well 2% paraformaldehyde and stored at 4° C. overnight. Each sample's bound fluorescence is measured on a BD FACSCalibur flow cytometry system and analyzed using Cell Quest Pro software (Becton Dickinson, ver 5.2). The GeoMean fluorescence intensity for each sample is plotted relative to the TRU-016 concentration. A dose response curve is generated and fit to a 4-parameter logistic (4-PL) curve using the SoftMax Pro software (Molecular Devices, ver 5.0.1). Titrations of TRU-016 are utilized to create a dose response curve of the untreated control and CS treated samples for comparison.
# [2] = molecular target: T1, CD37 cell surface receptor (Homo sapiens, UniProt P11049); experiment: Binding of TRU-016 to B and non-B lymphocytes of human PBMC, two-color flow cytometry
# T1 construct: Human PBMCs are isolated over LSM density gradients; endogenous in cells; host or cells: human PBMC
# T1 sequence (P11049 1-281): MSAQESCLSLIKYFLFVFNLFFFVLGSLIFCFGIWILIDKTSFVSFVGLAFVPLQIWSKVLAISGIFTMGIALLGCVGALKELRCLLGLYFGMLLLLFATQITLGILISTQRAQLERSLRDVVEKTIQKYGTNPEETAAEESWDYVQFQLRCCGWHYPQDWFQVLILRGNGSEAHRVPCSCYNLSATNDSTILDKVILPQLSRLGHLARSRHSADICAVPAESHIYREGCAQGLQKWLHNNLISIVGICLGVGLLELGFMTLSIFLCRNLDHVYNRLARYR
# Experimental: Experiments may be performed to confirm that the binding specificity of the parent antibody to the CD37 cell surface receptor is preserved in TRU-016. Human PBMCs are isolated over LSM density gradients and incubated with unconjugated TRU-016 and PE-conjugated anti-human CD19. Cells are washed and incubated with 1:100 FITC GAH IgG (Fc specific) for 45 minutes on ice. Cells are washed and analyzed by two-color flow cytometry on a FACsCalibur instrument using Cell Quest software. Cells are gated for B lymphocytes or non-B lymphocytes by CD19 staining.
Molecule,"CD16 binding (mean fluorescence intensity) of Protein A-purified TRU-016 (CD16; 0, 10, 25, 50, 100 or 200 μM castanospermine in culture media)",reduction of TRU-016 protein production ([1]; 400 μm CS),Viability at Harvest (%) ([1]; CS 25 μM),Viability at Harvest (%) ([1]; CS 50 μM),Viability at Harvest (%) ([1]; CS 100 μM),Viability at Harvest (%) ([1]; CS 200 μM),Viability at Harvest (%) ([1]; CS 400 μM),Viability at Harvest (%) ([1]; CS 800 μM),cell viability and growth as indicated by integral cell area (ICA) ([1]; CS 25-800 μM),"immunoglycoprotein production ([1]; increasing concentrations of castanospermine, 25-800 μM)","dose response binding curves of TRU-016 to CD37 expressing cells, compared with untreated TRU-016 sample (CD37)",TRU-016 concentration at saturation of FITC signal on the B lymphocyte (CD19 positive gate) ([2]; CD19 positive gate),mean fluorescence intensity (MFI) at saturation ([2]; CD19 positive gate),staining of the non-B lymphocyte population ([2]; non-B lymphocyte gate),"CD16 binding activity of sera containing TRU-016 (CD16; mouse sera at 48, 72, 96 and 192 hours after administration of carbohydrate-modified TRU-016)"
O[C@H]1[C@H](O)[C@@H](O)CN2CC[C@H](O)[C@H]12 [castanospermine],dose-dependent increase,approximately 40%,53.9% and 54.5%,49.4% and 50.0%,54.4% and 54.6%,55.5% and 51.1%,65.7% and 68.2%,70.6% and 65.2%,did not appear to be significantly affected,appeared to reduce,did not alter,,,,
"TRU-016: recombinant single chain protein (SMIP) that binds CD37; G28-1 binding domain, modified hinge, human IgG1 CH2 and CH3; SEQ ID NO: 2",,,,,,,,,,,,approximately 1 μg/mL,~1000,"detectable, but very low",retained its increased CD16 binding activity

# Reference: patent US20100150948A1, “MATERIALS AND METHODS FOR IMPROVED IMMUNOGLYCOPROTEINS” (TRUBION PHARMACEUTICALS, INC., priority 2006, published 2010)
